Assay results as given in patent publication US20100204277A1, “Compositions and Methods for Controlling Infestation” (HATCHTECH PTY LTD., priority 2007, published 2010).
Values joined by “and” are separate entries in the source; they are usually repeats but may differ in a detail not shown here. Equal entries are not always repeated. Where two headings read alike, the source gives them in different places.

How the values were obtained:
[1] = test system: Lice (L) / Plutella (P) eggs; type: in vivo; settings: Lice/Plutella: P
Method: Log LD50 is obtained from the observed percentage ovicidal activity by conversion using a modified logit transformation. The observed percentage ovicidal activity values were transformed using the equation:
The additional 5% was used to allow a number to be calculated when 0% and 100% activity was observed. The BA is a crude correction to the log of the concentration at which the compounds were tested. Correlation between BA values and LD50 allows the calculation of Log LD50. […] A number of metal chelating agents with potential for inhibiting the remodelling events associated with thin membrane egg hatching in lice were analysed by comparing their percentage ovicidal activity in lice at different concentrations, their logit calculated pLD50, Pref pLD50, Activity class, clogP and molar refractivity were determined.

H. contortus eggs = assay: Haemonchus contortus egg hatch; type: in vivo
Method: In an attempt to improve control of H. contortus the effects of the compound 5,5′-dimethyl-2,2′-dipyridyl was examined on H. contortus eggs. Eggs were recovered from the faeces of infected sheep using a standard sucrose floatation method. The eggs were corrected to a density of approximately 2,500 eggs per mL and were then exposed to varying concentrations of compound and incubated for 48 hours at 25° C. The eggs were then examined to determine the ovicidal efficacy of the compound in comparison to untreated control and a solvent only control.
In addition, the ovicidal efficacy of the compound 2-acetyl-1-tetralone was examined against H. contortus (FIG. 10). The same protocol was used as described for 5,5′-dimethyl-2,2′-dipyridyl.

[2] = test system: Helicoverpa armigera eggs; assay: Helicoverpa egg hatch; settings: for ovicidal efficacy against H. armigera eggs (FIG. 6): 1% diethoxyglycol in water; for % Inhibition of egg hatch relative to control: Example 16, exposed 2-10 seconds, day 6 post laying
Method: A range of concentrations were made up in water and the eggs placed in the solutions for approximately 2-10 seconds. The eggs which had been laid on cloth were then blotted dry and placed in an incubator at 26° C. for 3-4 days until hatch. Hatch rates were then assessed compared to a water only treated control (FIG. 5).
The compound was dissolved in 100% diethoxyglycol and diluted to a final concentration of 1% in water.
Several hundred Helicoverpa armigera eggs (Tatura×Toowoomba strains) were collected, that had been laid on fine mesh cloth over a 24 hour period.
Batches of Helicoverpa eggs were exposed to a specific inhibitor solution for between 2-10 seconds the excess solution drained by blotting with dry tissue paper. The egg masses were then placed in a humid box at 25 degrees until egg hatch. Control eggs were exposed to absolute methanol as described above. At day 6 post laying the eggs were assessed from the different treatments and the percentage of egg hatch determined relative to the control as shown in Table 12.
Batches of Helicoverpa eggs were then exposed to a specific inhibitor solution for between 2-10 seconds the excess solution drained by blotting with dry tissue paper. The egg masses were then placed in a humid box at 25° C. until egg hatch. Control eggs were exposed to absolute methanol as described above. At day 6 post laying the eggs were assessed from the different treatments and the percentage of egg hatch determined relative to the control as shown in Table 13.

[3] = test system: Plutella xylostella eggs (Waite strain); assay: Plutella xylostella egg hatch (egg dip); settings: for ovicidal efficacy against Plutella eggs (FIG. 7): 1% diethoxyglycol; for egg hatching of Plutella eggs (Tables 10 and 11): cloth or parafilm; for % Inhibition of egg hatch relative to control: Example 12, dip 2-10 seconds, day 6 post laying
Method: Several hundred Plutella xylostella eggs (Waite strain) were collected, that had been laid over a 24 hour period.
The egg masses were then placed in a humid box at 25° C. until egg hatch. Control eggs were exposed to absolute methanol as described above. At day 6 post laying the eggs were assessed from the different treatments and the percentage of egg hatch determined relative to the control as shown in Table 9.
Batches of Plutella eggs that were laid on either fine cloth or parafilm were dipped in a specific inhibitor solution for between 2-10 seconds, the excess solution was drained by blotting with dry tissue paper. The egg masses were then placed in a humid box at 25 degrees until egg hatch. Control eggs were exposed to absolute methanol as described above or not treated. At day 6 post laying the eggs were assessed from the different treatments and the percentage of egg hatch determined relative to the controls as shown in Tables 10 and 11.
The egg masses were then placed in a humid box at 25 degrees until egg hatch. Control eggs were exposed to absolute ethanol as described above. On day 6 post laying the eggs were assessed from the different treatments and the percentage of egg hatch determined relative to the control.

[4] = test system: Plutella xylostella eggs (Waite strain); assay: Reversal of ovicidal effect by added metal ions (FeSO4), Plutella eggs; type: in vivo
Method: (§1) Within 24 hours of collection the following experimental design was chosen. Batches of eggs were exposed to 10 mM 6,6′-dimethyl-2,2′-dipyridyl for 2 seconds while additional batches of eggs were exposed to the solvent only (Methanol) for 2 seconds. All batches of eggs were allowed to air dry for 20 minutes at room temperature. The eggs were then given a 2 second exposure to FeSO4 at either 10, 5 or 1 mM, air dried and put in the incubator at 24° C. and allowed to hatch over the next 6 days. In addition, a positive control of 10 mM 6,6′-dimethyl-2,2′-dipyridyl was set up in which eggs were exposed to this compound for 2 seconds, air dried and placed in the incubator.
as §1, with “10 mM 5,5′-dimethyl-2,2′-dipyridyl for 2” for “10 mM 6,6′-dimethyl-2,2′-dipyridyl for 2”, “FeSO4 at 10, 5” for “FeSO4 at either 10, 5”, “put in an incubator at” for “put in the incubator at”, “of 10 mM, 5,5′-dimethyl-2,2′-dipyridyl was set” for “of 10 mM 6,6′-dimethyl-2,2′-dipyridyl was set”

house dust mite = assay: House dust mite counts on treated filter paper; type: in vivo, Dermatophagoides spp; settings: per replicate; for 2 week count (mite count): 2 weeks at 25° C. and 75% RH
Method: A filter paper (90 mm diameter) was taken and placed in a Petri dish of the same dimensions. The filter paper was then wetted throughout with the test compound, using a small air pump sprayer. The wetted filter paper was then allowed to dry in free flowing air. 200 mg dust mite medium, containing roughly 500 mites/g, was placed on the filter paper and the number of mites counted under a microscope. The arena was then left for 2 weeks on an incubator at 25° C. and 75% RH. After 2 weeks the number of mites in the arena was counted for a second time. This experiment was repeated 3 times with the test compound and a further 3 times using water as a control.

[5] = test system: Third stage H. contortus larvae; assay: Survival of third stage H. contortus larvae (L3 to L4); type: in vivo, Haemonchus contortus
Method: Third stage H. contortus larvae were exposed to varying concentrations of 5,5′-dimethyl-2,2′-dipyridyl and the effects on moulting from L3 to L4 examined. The larvae were either exsheathed (their L2 sheath was removed chemically) or unexsheathed (their L2 sheaths were intact). The larvae were exposed to varying concentrations of 5,5′-dimethyl-2,2′-dipyridyl added to their culture media of DMEM and the effects on larval survival monitored over time. Following a 30 minute incubation at 37° C., greater than 90% of the exsheathed larvae exposed to 1 and 0.5 mM of the compound appeared dead. […] By day six post exposure greater than 90% of the larvae appeared to have died in the treatment groups while the control larvae appeared healthy.

head lice eggs = assay: Formulated compound on egg hatching in head lice; type: in vivo; settings: 20 mM formulation
Method: Gravid female lice were permitted to lay eggs. The eggs were counted, inspected under a light microscope and all eggs that appeared undamaged were allocated to one of two treatment groups. One group was exposed to 5′-dimethyl-2,2′-dipyridyl in a formulation, while the second group was exposed to the formulation only. The protocol was as follows:
Treatments: 5′-dimethyl-2,2′-dipyridyl (20 mM) n=10 • Vehicle control only n=10
Exposure time: 10 minutes
Wash time: 1 minute @˜37° C.
Incubation: All eggs were placed at 31° C. in a humid incubator and monitored for signs of development specifically of the eyes and subsequent hatching, see Table 21.

[6] = 10 mM compound followed by 2 second exposure to 1 mM FeSO4
[7] = 10 mM compound followed by 2 second exposure to 5 mM FeSO4
[8] = 10 mM compound followed by 2 second exposure to 10 mM FeSO4

CC(=O)C1CCc2ccccc2C1=O (stereo not drawn) [2-acetyl-1-tetralone]
Activity class 0 = inactive 1 = low 2 = med 3 = high ([1]; 1 mM): 3 (a pLD50 greater than 4 is considered strongly active (Class 3)) | Activity class 0 = inactive 1 = low 2 = med 3 = high ([1]; 10 mM): 1 (a pLD50 value between 2 and 3 is considered weakly active (Class 1)) | inhibition of H. contortus egg hatch (FIG. 10) (H. contortus eggs; 22 ug/mL (0.1 mM)): Partial inhibition | inhibition of H. contortus egg hatch (FIG. 10) (H. contortus eggs; 220 ug/mL (1 mM) and 110 ug/mL (0.5 mM)): highly effective | ovicidal efficacy against H. armigera eggs (FIG. 6) ([2]; 1 mM): efficacy declining | ovicidal efficacy against H. armigera eggs (FIG. 6) ([2]; 2 mM): strong ovicidal efficacy | ovicidal efficacy against Plutella eggs (FIG. 7) ([3]; 0.5 mM): no inhibition | ovicidal efficacy against Plutella eggs (FIG. 7) ([3]; 2 and 1 mM): strong ovicidal efficacy

Cc1ccc(-c2ccc(C)cn2)nc1 [5,5′-dimethyl-2,2′-dipyridyl]
% Inhibition relative to the FeSO4 controls [4, 6]: 0% | % Inhibition relative to the FeSO4 controls [4, 7]: 0% | % Inhibition relative to the FeSO4 controls [4, 8]: 8% | ovicidal efficacy on H. contortus eggs (FIG. 8) (H. contortus eggs; 180 and 18 ug/mL (equivalent to 1 and 0.1 mM), 48 hours at 25° C.): potently ovicidal | 2 week count (mite count) (house dust mite; listed as Test Compound): 50 and 90 | 2 week count (mite count) (house dust mite; listed as Test compound): 74 | 1 hour count (mite count) (house dust mite; listed as Test Compound): 61 and 104 | 1 hour count (mite count) (house dust mite; listed as Test compound): 76 | appearance of unexsheathed larvae ([5]; 10 μM, up to 6 days post exposure): appeared normal | effects on unexsheathed larvae compared to control larvae ([5]; up to 3 days post exposure): no adverse effects | egg hatching in head lice (head lice eggs; 10 minutes exposure): significantly suppress | eggs that failed to hatch (head lice eggs; the eggs other than the two that developed): 80% | egg hatching of Plutella eggs (Tables 10 and 11) ([3]; 10 and 1 mM): significantly inhibit

Cc1cccc(-c2cccc(C)n2)n1 [6,6′-dimethyl-2,2′-dipyridyl]
% Inhibition relative to the FeSO4 controls [4, 6]: 3% | % Inhibition relative to the FeSO4 controls [4, 7]: 0% | % Inhibition relative to the FeSO4 controls [4, 8]: 38% | % Inhibition of egg hatch relative to control ([2]; 0.001 mM): No inhibition | % Inhibition of egg hatch relative to control ([2]; 0.01 mM): No inhibition | % Inhibition of egg hatch relative to control ([2]; 0.1 mM): No inhibition | % Inhibition of egg hatch relative to control ([2]; 1 mM): significantly inhibit | % Inhibition of egg hatch relative to control ([2]; 10 mM): significantly inhibit | % Inhibition of egg hatch relative to control ([3]; 1 mM): strong ovicidal effects | % Inhibition of egg hatch relative to control ([3]; 10 mM): strong ovicidal effects | egg hatching of Plutella eggs (Tables 10 and 11) ([3]; 0.1 and 0.01 mM): no observable effects | egg hatching of Plutella eggs (Tables 10 and 11) ([3]; 10 and 1 mM): effective at inhibiting egg hatching
